Measured values as given in PubChem BioAssay AID1259407 (Chemical Carcinogenesis Research Information System (CCRIS), 2018).
Activity calls are given as the source filed them. How the calls were made is not given here.

Test system: CCRIS mutagenicity, Ames/micronucleus/aberration tests
Experiment: CCRIS mutagenicity studies
[1] = Test System: AMES SALMONELLA TYPHIMURIUM, Strain/Indicator: TA100, Metabolic Activation: NONE, Method: PREINCUBATION

Q: Which results are given for `CC(=O)CN(CC(C)=O)N=O`?
A: mutagenic call (Test System: AMES SALMONELLA TYPHIMURIUM, Strain/Indicator: TA100, Metabolic Activation: HAMSTER, LIVER, S-9, 3-METHYLCHOLANTHRENE, Method: PREINCUBATION): active; positive; mutagenic call (Test System: AMES SALMONELLA TYPHIMURIUM, Strain/Indicator: TA100, Metabolic Activation: HAMSTER, LIVER, S-9, PHENOBARBITAL, Method: PREINCUBATION): active; positive; mutagenic call (Test System: AMES SALMONELLA TYPHIMURIUM, Strain/Indicator: TA100, Metabolic Activation: HAMSTER, LIVER, S-9, Method: PREINCUBATION): active; positive; mutagenic call (Test System: AMES SALMONELLA TYPHIMURIUM, Strain/Indicator: TA100, Metabolic Activation: HUMAN, LIVER, S-9, Method: PREINCUBATION): active; positive; mutagenic call (Test System: AMES SALMONELLA TYPHIMURIUM, Strain/Indicator: TA100, Metabolic Activation: MONKEY, LIVER, S-9, Method: PREINCUBATION): active; positive; mutagenic call (Test System: AMES SALMONELLA TYPHIMURIUM, Strain/Indicator: TA100, Metabolic Activation: MOUSE, LIVER, S-9, 3-METHYLCHOLANTHRENE, Method: PREINCUBATION): active; positive; mutagenic call (Test System: AMES SALMONELLA TYPHIMURIUM, Strain/Indicator: TA100, Metabolic Activation: MOUSE, LIVER, S-9, PHENOBARBITAL, Method: PREINCUBATION): active; positive; mutagenic call (Test System: AMES SALMONELLA TYPHIMURIUM, Strain/Indicator: TA100, Metabolic Activation: MOUSE, LIVER, S-9, Method: PREINCUBATION): active; positive; mutagenic call [1]: inactive; negative; mutagenic call (Test System: AMES SALMONELLA TYPHIMURIUM, Strain/Indicator: TA100, Metabolic Activation: RABBIT, LIVER, S-9, Method: PREINCUBATION): active; positive; mutagenic call (Test System: AMES SALMONELLA TYPHIMURIUM, Strain/Indicator: TA100, Metabolic Activation: RAT, LIVER, CYTOSOL, PCB, Method: PREINCUBATION): active; positive; mutagenic call (Test System: AMES SALMONELLA TYPHIMURIUM, Strain/Indicator: TA100, Metabolic Activation: RAT, LIVER, MICROSOMES AND CYTOSOL, PCB, Method: PREINCUBATION): active; positive; mutagenic call (Test System: AMES SALMONELLA TYPHIMURIUM, Strain/Indicator: TA100, Metabolic Activation: RAT, LIVER, MICROSOMES AND G6PDH, PCB, Method: PREINCUBATION): active; positive; mutagenic call (Test System: AMES SALMONELLA TYPHIMURIUM, Strain/Indicator: TA100, Metabolic Activation: RAT, LIVER, MICROSOMES, PCB, Method: PREINCUBATION): active; positive; mutagenic call (Test System: AMES SALMONELLA TYPHIMURIUM, Strain/Indicator: TA100, Metabolic Activation: RAT, LIVER, S-9 (HEATED), PCB, Method: PREINCUBATION): active; positive; mutagenic call (Test System: AMES SALMONELLA TYPHIMURIUM, Strain/Indicator: TA100, Metabolic Activation: RAT, LIVER, S-9, 3-METHYLCHOLANTHRENE, Method: PREINCUBATION): active; positive; mutagenic call (Test System: AMES SALMONELLA TYPHIMURIUM, Strain/Indicator: TA100, Metabolic Activation: RAT, LIVER, S-9, AROCLOR 1254, Method: PREINCUBATION): active; positive; mutagenic call (Test System: AMES SALMONELLA TYPHIMURIUM, Strain/Indicator: TA100, Metabolic Activation: RAT, LIVER, S-9, N-BENZYLIMIDAZOLE, Method: PREINCUBATION): active; positive; mutagenic call (Test System: AMES SALMONELLA TYPHIMURIUM, Strain/Indicator: TA100, Metabolic Activation: RAT, LIVER, S-9, PCB, Method: PREINCUBATION): active; positive; mutagenic call (Test System: AMES SALMONELLA TYPHIMURIUM, Strain/Indicator: TA100, Metabolic Activation: RAT, LIVER, S-9, PHENOBARBITAL, Method: PREINCUBATION): active; positive; mutagenic call (Test System: AMES SALMONELLA TYPHIMURIUM, Strain/Indicator: TA100, Metabolic Activation: RAT, LIVER, S-9, Method: PREINCUBATION): active; positive; mutagenic call (Test System: AMES SALMONELLA TYPHIMURIUM, Strain/Indicator: TA100, Metabolic Activation: RAT, LIVER, S-9 WITHOUT NADP+, PCB, Method: PREINCUBATION): active; positive; mutagenic call (Test System: AMES SALMONELLA TYPHIMURIUM, Strain/Indicator: TA100, Method: PREINCUBATION): active; positive; mutagenic call (Test System: AMES SALMONELLA TYPHIMURIUM, Strain/Indicator: TA104, Metabolic Activation: RAT, LIVER, S-9, AROCLOR 1254, Method: PREINCUBATION): inactive; negative; mutagenic call (Test System: AMES SALMONELLA TYPHIMURIUM, Strain/Indicator: TA1535, Metabolic Activation: RAT, LIVER, S-9, AROCLOR 1254, Method: PREINCUBATION): active; positive; mutagenic call (Test System: AMES SALMONELLA TYPHIMURIUM, Strain/Indicator: TA1975, Metabolic Activation: RAT, LIVER, S-9, AROCLOR 1254, Method: PREINCUBATION): active; positive; mutagenic call (Test System: CHINESE HAMSTER V-79, Strain/Indicator: V-79/6-THIOGUANINE, Metabolic Activation: HAMSTER, PANCREAS, DUCT CELL-MEDIATED, Method: STANDARD PLATE): active; positive; mutagenic call (Test System: CHINESE HAMSTER V-79, Strain/Indicator: V-79/OUABAIN, Metabolic Activation: HAMSTER, HEPATOCYTES, Method: CELL-MEDIATED): active; positive; mutagenic call (Test System: CHINESE HAMSTER V-79, Strain/Indicator: V-79/OUABAIN, Metabolic Activation: HAMSTER, PANCREAS, ACINAR CELL-MEDIATED, Method: STANDARD PLATE): active; positive

Q: `CCN(CCCC(=O)O)N=O` was tested. Which mutagenic call (Test System: AMES SALMONELLA TYPHIMURIUM, Strain/Indicator: TA1535, Metabolic Activation: RAT, LIVER, S-9, KC500 OR PHENOBARBITAL, Method: LIQUID SUSPENSION) did it give?
A: Its mutagenic call is “active; positive”.

Q: With `O=NN(CCO)CC(=O)O` as the molecule, how does the mutagenic call [1] read?
A: The mutagenic call was “active; positive”.

Q: Which results are given for `O=[N+]([O-])c1ccc2ccc3c4c(cc5ccc1c2c53)C=C[C@H](O)[C@H]4O`?
A: mutagenic call (Test System: AMES SALMONELLA TYPHIMURIUM, Strain/Indicator: TA98, Metabolic Activation: NONE): active; positive; mutagenic call (Test System: AMES SALMONELLA TYPHIMURIUM, Strain/Indicator: TA98, Metabolic Activation: RAT, LIVER, S-9, AROCLOR 1254): active; positive; mutagenic call (Test System: CHINESE HAMSTER OVARY, Strain/Indicator: CHO-K1-BH4 (HGPRT), Metabolic Activation: NONE): inactive; negative; mutagenic call (Test System: CHINESE HAMSTER OVARY, Strain/Indicator: CHO-K1-BH4 (HGPRT), Metabolic Activation: RAT, LIVER, S-9, 3-METHYLCHOLANTHRENE): inactive; negative

Q: How did the mutagenic call (Test System: Mouse lymphoma cells, Strain/Indicator: L5178Y ( tk+/tk-), Metabolic Activation: Human, Liver, S-9, Method: Suspension/plate) turn out when `COc1ccc(/C=C/c2cc(OC)cc(=O)o2)cc1` was run?
A: The mutagenic call was “inactive; negative”.

Q: For `OC[C@H]1O[C@@H](n2cnc3c2ncn2ccnc32)[C@H](O)[C@@H]1O`, which mutagenic call [1] is on record?
A: Its mutagenic call is “inactive; negative”.

Q: `Nc1ccc(-c2ccc(-c3ccc(N)cc3)cc2)cc1` was tested. Which mutagenic call (Test System: AMES SALMONELLA TYPHIMURIUM, Strain/Indicator: TA1538, Metabolic Activation: NONE, Method: STANDARD PLATE) did it give?
A: Its mutagenic call is “active; positive”.

Q: What about the mutagenic call (Test System: AMES SALMONELLA TYPHIMURIUM, Strain/Indicator: TA1538, Metabolic Activation: RAT, LIVER, S-9, AROCLOR 1254, Method: STANDARD PLATE) of the same molecule?
A: Its mutagenic call is “active; positive”.

Q: What about the mutagenic call (Test System: CHINESE HAMSTER V-79, Strain/Indicator: V-79/6-THIOGUANINE, Metabolic Activation: NONE, Method: SUSPENSION/PLATE) of the same molecule?
A: Its mutagenic call is “active; positive”.

Q: What about the mutagenic call (Test System: CHINESE HAMSTER V-79, Strain/Indicator: V-79/6-THIOGUANINE, Metabolic Activation: RAT, LIVER, S-9, AROCLOR 1254, Method: SUSPENSION/PLATE) of the same molecule?
A: Its mutagenic call is “inactive; negative”.

Q: What about the mutagenic call (Test System: CHINESE HAMSTER V-79, Strain/Indicator: V-79/6-THIOGUANINE, Metabolic Activation: RAT, LIVER, S-9, PHENOBARBITAL AND BETA-NAPHTHOFLAVONE, Method: SUSPENSION/PLATE) of the same molecule?
A: The mutagenic call was “inactive; negative”.

Q: What does the source list for `ONc1ccc(-c2ccccc2)cc1`?
A: mutagenic call (Test System: AMES SALMONELLA TYPHIMURIUM, Strain/Indicator: TA98(1,8-DNP6), Metabolic Activation: NONE, Method: PREINCUBATION): active; positive; mutagenic call (Test System: AMES SALMONELLA TYPHIMURIUM, Strain/Indicator: TA98, Metabolic Activation: NONE, Method: PREINCUBATION): active; positive; mutagenic call (Test System: AMES SALMONELLA TYPHIMURIUM, Strain/Indicator: TA98, Metabolic Activation: NONE, Method: STANDARD PLATE): active; positive; mutagenic call (Test System: AMES SALMONELLA TYPHIMURIUM, Strain/Indicator: TA98, Metabolic Activation: S-9, Method: STANDARD PLATE): active; positive; mutagenic call (Test System: AMES SALMONELLA TYPHIMURIUM, Strain/Indicator: TA100, Metabolic Activation: NONE, Method: STANDARD PLATE): active; positive; mutagenic call (Test System: AMES SALMONELLA TYPHIMURIUM, Strain/Indicator: TA100, Metabolic Activation: S-9, Method: STANDARD PLATE): active; positive; mutagenic call (Test System: AMES SALMONELLA TYPHIMURIUM, Strain/Indicator: TA1535, Metabolic Activation: NONE, Method: STANDARD PLATE): inactive; negative; mutagenic call (Test System: AMES SALMONELLA TYPHIMURIUM, Strain/Indicator: YG1024, Metabolic Activation: NONE, Method: PREINCUBATION): active; positive; mutagenic call (Test System: E. COLI, Strain/Indicator: WP2, Metabolic Activation: NONE, Method: PREINCUBATION): active; positive; mutagenic call (Test System: E. COLI, Strain/Indicator: WP2 UVRA(P), Metabolic Activation: NONE, Method: STANDARD PLATE): active; positive; mutagenic call (Test System: E. COLI, Strain/Indicator: WP2 UVRA, Metabolic Activation: NONE, Method: FLUCTUATION TEST): active; positive; mutagenic call (Test System: E. COLI, Strain/Indicator: WP2 UVRA, Metabolic Activation: NONE, Method: PREINCUBATION): active; positive; mutagenic call (Test System: E. COLI, Strain/Indicator: WP2 UVRA, Metabolic Activation: NONE, Method: STANDARD PLATE): active; positive
